The structures appear in SMILES notation.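 Step 1: Grow cells in 96-well plates. Step 2: Expose to compound for 48 hours at 5 concentrations. Step 3: Interpolate endpoints linearly; if unreached, use highest concentration. GI50 is the concentration that inhibits growth by half. TGI marks complete inhibition of growth.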

These results are taken from PubChem BioAssay (NCI).

Common to all, as to assay: NCI-60 cell line screen, 48 h
Assay [1] has as its system 786-0 renal.
Assay [2] relates to A549 NSCLC.
In assay [3] the test system is HCT-15 colon.
The test system of assay [4] is HOP-62 NSCLC.
Assay [5] concerns HOP-92 NSCLC.
For assay [6], the system named is HS 578T breast.
Assay [7] concerns MCF7 breast.
Assay [8] concerns NCI-H23 lung.
In assay [9] the test system is OVCAR-4 ovarian.
In assay [10] the test system is U251 CNS.

Take `CN(C)CC1CCCCCC(Br)C1=O` (stereo not given): the TGI is 8.62 µM in assay [1]; above 100 µM in assay [2]; 25.4 µM in assay [3]; 47.3 µM in assay [4]; 22.2 µM in assay [5]; 61.5 µM in assay [6]. Besides, the TGI in [7] came out at 12.7 µM; in [8], 29.6 µM; in [9], 33.6 µM; in [10], 43 µM.

With `Fc1cccc(Cl)c1Cn1c(-c2c(F)cccc2Cl)nc2ccccc21`, the GI50 was 21 µM in assay [1]; 11.6 µM in [2]; 16.4 µM in assay [3]; 23.2 µM in [4]; 13.9 µM in [5]; 21.6 µM in assay [6]. Further, the GI50 in assay [7] is 20 µM; in [8], 31.2 µM; in assay [9] it was 23.6 µM; in [10], 19.9 µM. For the same molecule, the TGI in [1] stood at 42.6 µM; in assay [2], 33.7 µM; in assay [3], 42.9 µM; in assay [4] it was 50.6 µM; in assay [5], 38.5 µM; in [6] it was 65.3 µM. Also, the TGI in assay [7] is 57.8 µM; in assay [8], above 100 µM; in assay [9], 58.3 µM; in assay [10], 47.1 µM.

For the molecule `O=C(c1nn(-c2ccc(Cl)cc2)cc1O)n1nc(C(F)(F)F)cc1-c1ccccc1`, the GI50 was 6.39 µM in assay [1]; 6.51 µM in [2]; 1.13 µM in assay [3]; 1.84 µM in assay [4]; 1.67 µM in assay [5]; 0.556 µM in assay [6]. The GI50 is 3.38 µM in [7], 5.49 µM in assay [8], 2.43 µM in assay [9] and 2.65 µM in assay [10]. In addition, the TGI was above 60.8 µM in [1]; above 100 µM in assay [2]; above 100 µM in assay [3]; above 76.9 µM in assay [4]; above 21.4 µM in [5]; above 100 µM in assay [6]. In addition, the TGI in [7], in assay [8], in assay [9] and in [10] was above 100 µM throughout.
